Literature values as cited in PMC9663686, “Proline, hydroxyproline, and pyrrolidone carboxylic acid derivatives as highly efficient but reversible transdermal permeation enhancers” (Scientific Reports, 2022).

Tests used:
[1] = tested on: HaCaT and 3T3 cells; details: read-out: in vitro cellular toxicities on HaCaT and 3T3 cells; cited from earlier work
[2] = tested on: rat skin; details: rats; cited from earlier work
[3] = tested on: rats; details: cited from earlier work

Which results are given for `CCCCCCCCCCCCOC(=O)CCCCCN.CCCCCCCCCCCCOC(=O)CCCCCNC(=O)O` [Transkarbam 12]?
IC50 [1]: 21 to 26 µM; in vivo dermal irritation and toxicity [2]: low in vivo dermal irritation and toxicity; acute oral toxicity in rats [3]: no acute oral toxicity in rats
